Entries after “also recorded” stand apart in the source; their conditions may differ.
Key:
[1] = test system: human Ad5 recombinant vector; test: Neutralizing antibody to adenovirus in BAL (Hela cell lacZ transduction); format: in vivo, C57BL/6 mice; conditions: day 28, versus control mice
Experimental: BAL samples obtained from animals 28 days after primary exposure to recombinant virus were evaluated for neutralizing antibodies to adenovirus and anti-adenovirus antibody isotypes as follows. The same four groups of C57BL/6 mice, i.e., control, CD4^+ depleted, IL-12 treated and IFN-γ treated, were infected with H5.010BALP. Neutralizing antibody was measured in serially-diluted BAL samples (100 μl) which were mixed with H5.010CBlacZ (1×10^6 pfu in 20 μl), incubated for 1 hour at 37° C., and applied to 80% confluent Hela cells in 96 well plates (2×10^4 cells per well). After 60 minutes of incubation at 37° C., 100 μl of DMEM containing 20% FBS was added to each well. Cells were fixed and stained for β-galactosidase expression the following day.
(§1) The results are shown graphically in FIGS. 1A through 1C, which summarize neutralizing antibody titer, and the relative amounts (OD405) of IgG and IgA present in BAL samples.

[2] = test system: virus-infected C57SV cells; test: CTL 51Cr release assay of restimulated splenocytes, IL-12 (Example 6B); format: cell-based, C57BL/6 mice; conditions: ALP virus, IL-12 i.p.; 51Cr release on virus-infected target cells
Experimental: B. Splenocytes harvested from C57BL/6 mice (“B6”) and IL-12-treated C57BL/6 mice (“B6+IL12”) of Example 5 were restimulated in vitro 10 days after administration of H5.010CBALP with H5.010CMVlacZ for 5 days in DMEM supplemented with 5% FBS and […] 2-mercaptoethanol. These cells were tested for specific lysis on mock-infected (“mock”) and H5.010CBALP (“ALP”)-infected C57SV cells in a 6 hour ^51Cr release assay performed subsequently using the following ratios of effector to target cells (c57SV, H-2^b) in 200 μl DMEM with 10% FBS in V-bottom 96-well plates (E:T=50:1, 25:1, 12:1, 6:1, 5:1 and 3:1).
Prior to mixing with the effector cells, target cells (1×10^6) were labeled with 100 μCi of ^51Cr after a 24 hr-infection with H5.010CMVlacZ at an moi of 50 and used at 5×10^3 cells/well. After incubation for 6 hr, aliquots of 100 μl supernatant were removed for counting in a gamma counter.

H5.010CBlacZ = test: Adenovirus-specific IgG and IgA in BAL by ELISA; format: in vivo, C57BL/6 mice; conditions: day 28, versus control mice
Experimental: Adenovirus-specific antibody isotype was determined in BAL by using an enzyme-linked immunosorbent assay (ELISA). Briefly, 96-well plates were coated with 100 μl of PBS containing 5×10^9 particles of H5.010CBlacZ for 18 hours at 4° C. The wells were washed 5 times with PBS. After blocking with 200 μl of 2% BSA in PBS, the plates were rinsed once with PBS and incubated with 1:10 diluted BAL samples for 90 minutes at 4° C. Thereafter, the wells were extensively washed and refilled with 100 μl of 1:1000 diluted ALP-conjugated anti-mouse IgG or IgA (Sigma). The plates were incubated, subsequently washed 5 times, and 100 μl of the substrate solution (p-nitrophenyl phosphate, PNPP) was added to each well. Substrate conversion was stopped by the addition of 50 μl of 0.1M EDTA, and reactions were read at 405 nm.
as §1

[3] = test system: adenovirus (H5.010CMVlacZ); test: Neutralizing antibody to adenovirus in serum; format: in vivo, C57BL/6 mice; conditions: IL-12 i.p., liver-directed
From the text: Mice from each group were subsequently euthanized and liver tissues evaluated for lacZ expression by X-gal histochemistry (magnification ×100) at day 3 and day 28; and for ALP expression by histochemical staining at day 31 (magnification ×100). Development of neutralizing antibody to adenovirus in each group of mice was examined in serum samples obtained at day 28.
Serum samples were also collected at days 0, 3, 7, 14, 21, 28, 35 and 42 from each group of animals and assayed for neutralizing antibody titer. Serum samples were incubated at 56° C. for 30 minutes and then diluted in DMEM in twofold steps starting from 1:20. Each serum dilution (100 μl) was mixed with H5.010CMVlacZ (2×10^6 pfu in 20 μl), incubated for 1 hour at 37° C., and applied to 80% confluent Hela cells in 96-well plates (2×10^4 cells per well). After 60 minutes incubation at 37° C., 100 μl of DMEK containing 20% FBS were added to each well. Cells were fixed and stained for β-galactosidase expression on the following day. All of the cells stained blue in the absence of serum samples. […] FIGS. 3A-3D report the antibody titer expressed as a function of days post-infection.

L929 cells = test: IFN-γ in the same lymphocyte culture supernatant measured on L929 cells; format: cell-based, C57BL/6 mice; conditions: MLN lymphocytes day 28, restimulated with virus
Experimental: (§2) Lymphocytes from MLN of the control group and IL-12 treated group of C57BL/6 mice were harvested 28 days after administration of H5.010CBALP and restimulated in vitro with UV-inactivated H5.010CMVlacZ at 10 particles/cell for 24 hours. Cell-free supernatants were assayed for the presence of IL-2 or IL-4 on HT-2 cells (an IL-2 or IL-4-dependent cell line) [Yang I, cited above]. Presence of IFN-γ in the same lymphocyte culture supernatant was measured on L929 cells as described [Yang I, cited above]. Stimulation index (S.I.) was calculated by dividing ^3H-thymidine cpm incorporated into HT-2 cells cultured in supernatants of lymphocytes restimulated with virus by ^3H-thymidine cpm incorporated into HT-2 cells cultured in supernatants of lymphocytes incubated in antigen-free medium.

HT-2 cells = test: IL-2/IL-4 in supernatants of virus-restimulated MLN lymphocytes, HT-2 cell 3H-thymidine incorporation; format: cell-based, C57BL/6 mice
Experimental: as §2

## interleukin-12 [IL-12]
[1]
  reduction of neutralizing antibody in BAL: 20 fold
[2]
  adenovirus-specific CTL activity: did not increase adenovirus-specific CTL activity; also recorded: unaffected
H5.010CBlacZ
  IgG in BAL: without significantly impacting on formation of IgG
  virus specific IgA in BAL: selectively blocked secretion of antigen specific IgA
[3]
  reduction in neutralizing antibody: 3 fold
L929 cells
  [formula] (column head not readable; IFN-γ in supernatant): 160
HT-2 cells; MLN lymphocytes 28 days after H5.010CBALP, antigen-free medium
  3H-Thymidine Incorporation (cpm ± SD), Medium: 247 ± 34 cpm
HT-2 cells; MLN lymphocytes day 28, restimulated with UV-inactivated H5.010CMVlacZ 24 hours
  3H-Thymidine Incorporation (cpm ± SD), H5.010CMVlacZ: 5203 ± 28 cpm
HT-2 cells; as E2, with anti-IL2 (1:5000)
  3H-Thymidine Incorporation (cpm ± SD), H5.010CMVlacZ: 776 ± 50 cpm
HT-2 cells; as E2, with anti-IL4 (1:5000)
  3H-Thymidine Incorporation (cpm ± SD), H5.010CMVlacZ: 4608 ± 52 cpm
HT-2 cells; lymphocytes stimulated in vitro with virus, 3 without IL-12
  ratio of IL-2/IL-4: 6
HT-2 cells; virus restimulated / antigen-free medium
  S.I. (stimulation index): 21.07
HT-2 cells; with anti-IL2 (1:5000)
  S.I. (stimulation index): 3.14
HT-2 cells; with anti-IL4 (1:5000)
  S.I. (stimulation index): 18.66

Reference: patent US6372208B1, “Method of reducing an immune response to a recombinant virus” (The Trustees of the University of Pennsylvania, priority 1996, dated 2002)
